Experiment: Inhibition of human TREX1 exonuclease activity using labeled DNA oligonucleotide as substrate incubated for 30 mins and measured after 45 mins by fluorescence assay

IC50	SMILES
< 1000 nM	N[C@@H]1C[C@H]2C(=O)N([C@H](CCC(=O)O)C(=O)N3CCOC[C@H]3c3ccc(Cl)c(Cl)c3)CCC(CCc3ccccc3)N2C1 (some centres not stated)
< 1000 nM	CC(C)C[C@H](C(=O)NCc1ccc(C(F)(F)F)c(F)c1)N1CCC(CCc2ccccc2)N2C[C@H](N)C[C@H]2C1=O (some centres not stated)
< 1000 nM	COC(=O)CC[C@H](C(=O)NCc1ccc(Cl)c(Cl)c1)N1CCC(CCc2ccccc2)N2C[C@H](N)C[C@H]2C1=O (some centres not stated)
< 1000 nM	N[C@@H]1C[C@H]2C(=O)N([C@H](CCC(=O)O)C(=O)NCc3ccc(Cl)c(Cl)c3)CCC(COc3ccccc3Cl)N2C1 (some centres not stated)
< 1000 nM	COC(=O)CC[C@H](C(=O)NCc1ccc(Cl)c(Cl)c1)N1CCC(COc2ccc(F)cc2)N2C[C@H](N)C[C@H]2C1=O (mixture of isomers)
< 1000 nM	CCOC(=O)CC[C@H](C(=O)NCc1cc(Cl)c(Cl)cc1OC)N1CCC(CCc2ccccc2)N2C[C@H](N)C[C@H]2C1=O (some centres not stated)
in the range around 1000 nM	N#CC[C@H](C(=O)N1CCOC[C@H]1c1ccccc1)N1CCC(CCc2ccccc2)N2C[C@H](N)C[C@H]2C1=O (some centres not stated)
in the range around 10000 nM	N[C@@H]1C[C@H]2C(=O)N([C@@H]3CCCN(S(=O)(=O)c4ccccc4)C3)CCC(CCc3ccccc3)N2C1 (some centres not stated)
< 1000 nM	CC(C)OC(=O)CC[C@H](C(=O)NCc1ccc(Cl)c(Cl)c1)N1CCC(CCc2ccccc2)N2C[C@H](N)C[C@H]2C1=O (some centres not stated)
< 1000 nM	CCOc1c(CNC(=O)[C@@H](CCC(=O)O)N2CCC(CCc3ccccc3)N3C[C@H](N)C[C@H]3C2=O)ccc(Cl)c1Cl (some centres not stated)
< 1000 nM	CCOC(=O)CC[C@H](C(=O)NCc1ccc(Cl)c(Cl)c1)N1CCC(CCc2ccccc2)N2C[C@H](N)C[C@H]2C1=O (some centres not stated)
< 1000 nM	N#CCC[C@H](C(=O)NCc1ccc(Cl)c(Cl)[n+]1[O-])N1CCC(CCc2ccccc2)N2C[C@H](N)C[C@H]2C1=O (some centres not stated)
< 1000 nM	N[C@@H]1C[C@H]2C(=O)N([C@H](CCNS(=O)(=O)C3CC3)C(=O)NCc3ccc(Cl)c(Cl)c3)CCC(CCc3ccccc3)N2C1 (some centres not stated)
< 1000 nM	COc1c(CNC(=O)[C@@H](CCC(N)=O)N2CCC(CCc3ccccc3)N3C[C@H](N)C[C@H]3C2=O)ccc(Cl)c1Cl (some centres not stated)
< 1000 nM	COc1c(CNC(=O)[C@@H](CCC(=O)O)N2CCC(CCc3ccccc3)N3C[C@H](N)C[C@H]3C2=O)ccc(Cl)c1Cl (some centres not stated)
< 1000 nM	N#CCC[C@H](C(=O)NCc1ccc(Cl)c(Cl)c1F)N1CCC(CCc2ccccc2)N2C[C@H](N)C[C@H]2C1=O (some centres not stated)
< 1000 nM	N[C@@H]1C[C@H]2C(=O)N([C@H](CCNC(=O)C3CC3)C(=O)NCc3ccc(Cl)c(Cl)c3)CCC(CCc3ccccc3)N2C1 (some centres not stated)
< 1000 nM	N[C@@H]1C[C@H]2C(=O)N([C@H](CCC(=O)O)C(=O)NCc3cc(Cl)c(Cl)cc3F)CCC(CCc3ccccc3)N2C1 (some centres not stated)
< 1000 nM	N[C@@H]1C[C@H]2C(=O)N([C@H](CCC(=O)NO)C(=O)NCc3ccc(Cl)c(Cl)c3)CCC(COc3ccc(F)cc3)N2C1 (some centres not stated)
< 1000 nM	COc1c(CNC(=O)[C@@H](CCC#N)N2CCC(CCc3ccccc3)N3C[C@H](N)C[C@H]3C2=O)ccc(Cl)c1Cl (some centres not stated)
< 1000 nM	N[C@@H]1C[C@H]2C(=O)N([C@H]3CCCN(Cc4ccc(Cl)c(Cl)c4)C3=O)CCC(CCc3ccccc3)N2C1 (some centres not stated)
in the range around 10000 nM	CCOC(=O)N[C@@H]1C[C@H]2C(=O)N([C@H](CCC(=O)O)C(=O)NCc3ccc(Cl)c(Cl)c3)CCC(CCc3ccccc3)N2C1 (some centres not stated)
< 1000 nM	N[C@@H]1C[C@H]2C(=O)N([C@H](CCC(=O)O)C(=O)N3CCCC[C@H]3c3ccc(Cl)c(Cl)c3)CCC(CCc3ccccc3)N2C1 (some centres not stated)
< 1000 nM	N[C@@H]1C[C@H]2C(=O)N([C@H](CCC(=O)O)C(=O)NCc3ccc(Cl)c(Cl)c3)CCC(COc3ccccc3F)N2C1 (some centres not stated)

IC50	SMILES
< 1000 nM	CCOC(=O)CC[C@H](C(=O)N1CCOC[C@H]1c1ccc(Cl)c(Cl)c1)N1CCC(CCc2ccccc2)N2C[C@H](N)C[C@H]2C1=O (some centres not stated)
< 1000 nM	Cn1c(Cl)ccc(CNC(=O)[C@@H](CCC(=O)O)N2CCC(CCc3ccccc3)N3C[C@H](N)C[C@H]3C2=O)c1=O (some centres not stated)
< 1000 nM	CCN(CC)C(=O)COC(=O)CC[C@H](C(=O)NCc1ccc(Cl)c(Cl)c1)N1CCC(CCc2ccccc2)N2C[C@H](N)C[C@H]2C1=O (some centres not stated)
< 1000 nM	Cc1nnc(CC[C@H](C(=O)NCc2ccc(Cl)c(Cl)c2F)N2CCC(CCc3ccccc3)N3C[C@H](N)C[C@H]3C2=O)[nH]1 (some centres not stated)
< 1000 nM	N[C@@H]1C[C@H]2C(=O)N([C@H](CCC(=O)O)C(=O)NCc3ccc(Cl)c(C(F)(F)F)c3)CCC(CCc3ccccc3)N2C1 (some centres not stated)
< 1000 nM	NC(=O)C[C@H](C(=O)NCc1ccc(Cl)c(Cl)c1)N1CCC(CCc2ccccc2)N2C[C@H](N)C[C@H]2C1=O (some centres not stated)
< 1000 nM	N[C@@H]1C[C@H]2C(=O)N([C@H](CCC(=O)O)C(=O)NCc3ccc(Cl)c(Cl)c3)CCC(COc3cccc(F)c3)N2C1 (some centres not stated)
< 1000 nM	N[C@@H]1C[C@H]2C(=O)N([C@H](CCC(=O)O)C(=O)N3CCC[C@H]3c3ccc(Cl)c(Cl)c3)CCC(CCc3ccccc3)N2C1 (some centres not stated)
< 1000 nM	N=C(N)NCCC[C@H](C(=O)NCc1ccc(Cl)c(Cl)c1)N1CCC(CCc2ccccc2)N2C[C@H](N)C[C@H]2C1=O (some centres not stated)
< 1000 nM	COc1ccc(CNC(=O)[C@@H](CC(C)C)N2CCC(CCc3ccccc3)N3C[C@H](N)C[C@H]3C2=O)cc1 (some centres not stated)
in the range around 1000 nM	COc1ccc(OCC2CCN([C@H](CCC(=O)O)C(=O)NCc3ccc(Cl)c(Cl)c3)C(=O)[C@@H]3C[C@@H](N)CN23)cc1 (some centres not stated)
< 1000 nM	CC(C)C[C@H](C(=O)NCc1ccc(F)c(F)c1)N1CCC(CCc2ccccc2)N2C[C@H](N)C[C@H]2C1=O (some centres not stated)
< 1000 nM	COc1ccc(CNC(=O)[C@@H](CC(C)C)N2CCC(CCc3ccccc3)N3C[C@H](N)C[C@H]3C2=O)cc1Cl (some centres not stated)
< 1000 nM	N[C@@H]1C[C@H]2C(=O)N([C@@H]3CCCN(Cc4ccc(Cl)c(Cl)c4)C3=O)CCC(CCc3ccccc3)N2C1 (some centres not stated)
< 1000 nM	CCOC(=O)CC[C@H](C(=O)N1CCC[C@H]1c1ccc(Cl)c(Cl)c1)N1CCC(CCc2ccccc2)N2C[C@H](N)C[C@H]2C1=O (mixture of isomers)
< 1000 nM	N[C@@H]1C[C@H]2C(=O)N([C@H](CSc3ccccc3O)C(=O)NCc3ccc(Cl)c(Cl)c3)CCC(CCc3ccccc3)N2C1 (some centres not stated)
< 1000 nM	CC(=O)NCC[C@H](C(=O)NCc1ccc(Cl)c(Cl)c1)N1CCC(CCc2ccccc2)N2C[C@H](N)C[C@H]2C1=O (some centres not stated)
< 1000 nM	COc1c(CNC(=O)[C@@H](CCc2nnn[nH]2)N2CCC(CCc3ccccc3)N3C[C@H](N)C[C@H]3C2=O)ccc(Cl)c1Cl (some centres not stated)
< 1000 nM	N#CC[C@H](C(=O)NCc1ccc(Cl)c(Cl)n1)N1CCC(CCc2ccccc2)N2C[C@H](N)C[C@H]2C1=O (some centres not stated)
< 1000 nM	N[C@@H]1C[C@H]2C(=O)N([C@@H](CCC(=O)O)C(=O)NCc3ccc(Cl)c(Cl)c3)CCC(CCc3ccccc3)N2C1 (some centres not stated)
< 1000 nM	CS(=O)(=O)NCC[C@H](C(=O)NCc1ccc(Cl)c(Cl)c1)N1CCC(CCc2ccccc2)N2C[C@H](N)C[C@H]2C1=O (some centres not stated)
< 1000 nM	CCOC(=O)CC[C@H](C(=O)NCc1cc(Cl)c(Cl)cc1F)N1CCC(CCc2ccccc2)N2C[C@H](N)C[C@H]2C1=O (some centres not stated)
in the range around 10000 nM	CCOC(=O)CC[C@H](C(=O)NCc1ccc(Cl)c(Cl)c1)N1CCC(CCc2ccccc2)N2C[C@H](NC(=O)OCC)C[C@H]2C1=O (some centres not stated)

Reference: ChEMBL document CHEMBL5050834, “Cyclic trex1 inhibitors” (2021)
